Source: US12485124B2, “Methods for treating alzheimer disease and for reducing amyloid beta formation” (ARIBIO CO., LTD., priority 2019, dated 2025)

Columns and labels:
BACE-1 and Cathepsin B = settings: reported in J Gerontol a Biol Sci Med Sci 2015; J Urol. 2016; cited from earlier work
[1] = tested on: LC3B, p62, APP, Aβ1-42 in Retinoic Acid Differentiated SH-SY5Y Human Neuroblastoma Cell; experiment: Western Blot of Autophagy Markers LC3B and p62; type: cell-based; settings: 3-MA 5 mM together with the present invention; Aβ1-42 Oligomer 1 μM
Procedure: To extract the proteins, the cells were treated with RIPA Lysis Buffer (Bio-Rad), homogenized, and centrifuged (14,000 rpm, 10 minutes, 4° C.) to obtain the supernatant. 5% Stacking Gel (DW, 30% Acrylamide: Bisacrylamide, 1M Tris pH 6.8, 10% SDS, TEMED, 10% Ammonium Persulfate) and 12% Separating Gel (DW, 30% Acrylamide: Bisacrylamide, 1.5M Tris pH 8.8, 10% SDS, TEMED, 10% Ammonium Persulfate) were used for SDS-PAGE. Supernatant obtained by centrifugation was mixed with 4× Lacmmli Buffer (Bio-Rad) in 3:1 ratio and boiled at 95° C. for 10 minutes to denature the proteins. The mixture was cooled in an ice bath for 10 minutes and span down. Protein Size Marker (Bio-Rad) and each sample were added to Stacking Gel Well prepared in Mini-Protein II Dual-Slab Apparatus (Bio-Rad) and electrophoresed at 150 volt till all are precipitated to the bottom. Polyvinylidene Difluoride (PVDF) Membrane was moistened with methanol to activate and washed with Transfer Buffer (190 mM Glycine, 50 mM Tris-Base, 0.05% SDS, 20% Methanol). Whatman 3M Paper moistened with Transfer Buffer was stacked in Mini Trans-Bolt Cell (Bio-Rad) and run electricity at 200 mA for 60 minutes to deposit the membrane. After the deposition, the membrane was blocked with 5% Skim milk solution (in TBS-T: 10 mM Tris-Base pH 8.0, 150 mM NaCl, 0.1% Tween-20) on a Platform Shaker for 60 minutes. The primary antibodies were diluted in 5% Skim Milk in an optimum concentration for each, put on platform shaker at 4° C. for 16 hours. […] Finally, Membrane was added to SuperSignal™ West Femto Maximum Sensitivity Substrate (Thermo Scientific™) and expressed the color properly before the membrane was scanned using image analysis system and the amount of protein was calculated using Image J Software (NIH, USA). […]

SMILES	BACE-1 and Cathepsin B expression (BACE-1 and Cathepsin B)	APP formation and Aβ1-42 accumulation [1]	Autophagic Flux (LC3B-II/I Ratio) [1]	expression of p62 [1]
CCCc1nn(C)c2c(=O)[nH]c(-c3cc(S(=O)(=O)N4CCN(C)CC4)ccc3OCC)nc12 [Sildenafil]	suppressed BACE-1 and Cathepsin B expression	–	–	–
Cn1cnc(N)c2ncnc1-2 [3-MA, 3-Methyladenine]	–	APP formation and Aβ1-42 accumulation increased	Autophagic Flux (LC3B-II/I Ratio) increased by the present invention was reduced	expression of p62 reduced by the present invention increased
